According to publication PMC11079024, “Identification of a family of species-selective complex I inhibitors as potential anthelmintics” (Nature Communications, 2024):
Read-outs that look alike come from different tables or passages of the source.

Legend:
[1] = biological target: C. elegans (N2) complex I (NADH:ubiquinone oxidoreductase) (Caenorhabditis elegans, UniProt P24887+Q93873+Q94360); experiment: biochemical; assay type: biochemical; conditions: for Log IC50 C. elegans complex I: log10 of IC50 in µM, C. elegans mitochondria
Chain of C. elegans (N2) complex I (NADH:ubiquinone oxidoreductase) (Q94360 17-199): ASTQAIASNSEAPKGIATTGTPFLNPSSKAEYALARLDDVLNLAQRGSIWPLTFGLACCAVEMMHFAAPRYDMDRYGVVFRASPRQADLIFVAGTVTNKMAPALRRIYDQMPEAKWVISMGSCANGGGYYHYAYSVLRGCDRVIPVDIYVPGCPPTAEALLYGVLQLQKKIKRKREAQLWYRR
Chain of C. elegans (N2) complex I (NADH:ubiquinone oxidoreductase) (P24887 whole entry): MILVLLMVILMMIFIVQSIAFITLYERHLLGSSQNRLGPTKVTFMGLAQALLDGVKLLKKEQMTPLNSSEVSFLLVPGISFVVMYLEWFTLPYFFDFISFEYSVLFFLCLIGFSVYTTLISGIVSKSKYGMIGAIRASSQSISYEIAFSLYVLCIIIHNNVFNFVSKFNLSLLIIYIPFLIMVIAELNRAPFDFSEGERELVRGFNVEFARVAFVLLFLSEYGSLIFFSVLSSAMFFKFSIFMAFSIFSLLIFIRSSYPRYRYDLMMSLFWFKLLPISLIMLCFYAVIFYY
Chain of C. elegans (N2) complex I (NADH:ubiquinone oxidoreductase) (Q93873 31-482): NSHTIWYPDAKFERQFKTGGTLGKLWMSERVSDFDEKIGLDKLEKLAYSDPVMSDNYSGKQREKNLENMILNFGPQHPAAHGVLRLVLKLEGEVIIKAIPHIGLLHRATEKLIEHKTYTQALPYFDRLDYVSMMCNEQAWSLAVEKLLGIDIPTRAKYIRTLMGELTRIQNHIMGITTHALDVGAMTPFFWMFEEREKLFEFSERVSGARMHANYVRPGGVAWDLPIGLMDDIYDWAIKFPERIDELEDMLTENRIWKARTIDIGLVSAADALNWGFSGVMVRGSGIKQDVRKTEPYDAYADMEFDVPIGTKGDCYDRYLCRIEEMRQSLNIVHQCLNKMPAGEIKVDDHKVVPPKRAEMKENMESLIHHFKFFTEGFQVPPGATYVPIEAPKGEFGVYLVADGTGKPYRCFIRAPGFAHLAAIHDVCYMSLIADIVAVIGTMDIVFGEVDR
Method: Mitochondria were isolated from the following free-living nematode strains: C. elegans—N2, CB3474, ECA882, ECA917, ECA1075, ECA1080; C. briggsae—AF16; P. pacificus—PS312; and P. hermaphrodita—B178. With the exception of the P. hermaphrodita strain B178, adult worms of each strain were grown in bulk through liquid culture to obtain mitochondria in sufficient quantities. Due to poor growth in liquid media, mixed stage populations of P. hermaphrodita were washed off and collected from NGM plates seeded with OP50. The isolation of mitochondria from all free-living nematode strains followed the protocol previously outlined in Burns et al.[24]. In brief, a 1 L saturated culture of E. coli HB101 was concentrated 20-fold in 50 mL complete S-medium. ~500,000 L1 worms synchronized from an embryo preparation performed the day prior were added to the S-media/HB101 suspension and grown to adulthood over the course of 3.5 days at 20 °C with shaking at 165 rpm. Following growth, worms were collected in 10 ×15 mL conical tubes and washed 7 times in M9 buffer. Worm suspensions were then combined into a single 15 mL conical tube and diluted to a final volume of 15 mL with M9 buffer. 1 mL aliquots of worm suspension were then distributed to 15 × 1.5 mL screw-cap microcentrifuge tubes and were pelleted at 500 g for 1 min. Excess M9 was aspirated without disturbing the worm pellet. 600 μL ice-cold isolate buffer A (250 mM sucrose, 10 mM Tris (pH 7.5), 1 mM EDTA, 1 mM PMSF (freshly prepared)) and 300 μL cold glass beads were then added to each tube. Tubes were incubated on ice for 10 min, and the worms were then lysed by bead beating (6 x 30 s, with 1 min cooling intervals). Tubes containing worm lysate were centrifuged at 1,000 g for 10 min at 4 °C and the supernatant was transferred to 15 new microcentrifuge tubes on ice. The tubes were centrifuged a second time at 1,000 g for 10 min at 4 °C and the supernatant was once again transferred to 15 new microcentrifuge tubes on ice. These tubes were then centrifuged at 16,000 g for 10 min at 4 °C. The resulting mitochondrial pellet was washed twice by re-suspension in 300 μL of ice-cold isolate buffer B (250 mM sucrose, 10 mM Tris (pH 7.5), 1 mM EDTA). Following the final wash, isolation buffer was aspirated from each tube and the pellets were flash-frozen in ethanol/dry ice and stored at −80 °C until needed.
(§1) The enzymatic activities of individual ETC complexes (I-IV) were assessed spectrophotometrically in isolated mitochondria using a Varioskan LUX Multimode plate reader (ThermoFisher Scientific). Mitochondrial pellets previously isolated were thawed on ice and resuspended in ice-cold isolation buffer (250 mM sucrose, 10 mM Tris (pH 7.5), 1 mM EDTA). The BCA assay (Walker, 1994) was used to quantify the protein concentration of mitochondria suspensions; solutions were diluted to a concentration of 0.2 mg/mL for use in all assays. For the complex I assay, mitochondria pellets were freeze-thawed on ice three times to increase enzyme accessibility. […] 20 μL mitochondria suspension was then added/mixed with a pipette to initiate the reaction. Immediately following the addition of mitochondria, absorbance was measured (complex I and II: 600 nm; complex III and IV: 550 nm) in 30 s intervals over 15 min. Enzymatic activity was determined in each reaction by plotting absorbance versus time and calculating the slope of the curve during the initial linear phase of the reaction. […] Percent activity of each complex was calculated by dividing the enzyme-specific activity of each well by the enzyme-specific activity of the corresponding solvent controls.
(§2) Chemical solutions were prepared in complex I assay buffer composed of 25 mM KPi buffer (pH 7.5), 3 mg/mL bovine serum albumin (BSA), 80 μM NADH, 60 μM decylubiquinone, 160 μM DCIP, 2 μM antimycin A and 2 mM KCN.
For preliminary screens of hit compounds, compounds were screened at 100 μM; data are the average of at least three biological replicates.

[2] = biological target: B. taurus (heart) complex I (Bos taurus, UniProt P03887+P17694+P42026); experiment: biochemical; assay type: biochemical; conditions: for IC50: B. taurus heart mitochondria, read-out: B. taurus Complex I IC50; for Log IC50 B. taurus complex I: log10 of IC50 in µM, B. taurus mitochondria
Chain of B. taurus (heart) complex I (P03887 whole entry): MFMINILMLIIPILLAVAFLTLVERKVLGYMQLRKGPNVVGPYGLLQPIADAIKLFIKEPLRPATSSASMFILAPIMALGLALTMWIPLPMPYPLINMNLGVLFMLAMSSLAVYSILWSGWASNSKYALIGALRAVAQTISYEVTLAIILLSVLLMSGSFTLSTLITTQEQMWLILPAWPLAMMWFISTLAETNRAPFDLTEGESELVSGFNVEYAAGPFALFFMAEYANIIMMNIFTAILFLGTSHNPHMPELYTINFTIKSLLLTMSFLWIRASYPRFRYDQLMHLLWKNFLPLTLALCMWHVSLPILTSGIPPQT
Chain of B. taurus (heart) complex I (P17694 34-463): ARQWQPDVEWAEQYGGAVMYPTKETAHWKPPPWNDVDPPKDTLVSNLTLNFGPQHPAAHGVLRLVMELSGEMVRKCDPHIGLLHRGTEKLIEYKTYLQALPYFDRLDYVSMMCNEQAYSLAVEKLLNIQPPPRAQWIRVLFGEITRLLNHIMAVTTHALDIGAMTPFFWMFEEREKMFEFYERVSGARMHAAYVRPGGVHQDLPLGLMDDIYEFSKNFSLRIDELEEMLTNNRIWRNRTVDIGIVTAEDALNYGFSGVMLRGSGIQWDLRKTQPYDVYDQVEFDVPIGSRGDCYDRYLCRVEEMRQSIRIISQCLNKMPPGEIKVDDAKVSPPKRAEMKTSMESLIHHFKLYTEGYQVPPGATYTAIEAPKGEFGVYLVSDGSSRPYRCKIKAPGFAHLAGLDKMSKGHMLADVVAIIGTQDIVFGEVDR
Chain of B. taurus (heart) complex I (P42026 38-216): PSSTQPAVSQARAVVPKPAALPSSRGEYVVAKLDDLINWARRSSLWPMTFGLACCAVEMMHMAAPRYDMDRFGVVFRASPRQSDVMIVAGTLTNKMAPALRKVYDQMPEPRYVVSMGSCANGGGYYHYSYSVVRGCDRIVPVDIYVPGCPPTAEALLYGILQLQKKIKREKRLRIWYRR
Method: Six 8–10-week-old C57Bl/6 female mice (Charles River) were freshly dissected, and their livers and hearts collected into separate 1.5 mL microcentrifuge tubes. Organs were flash-frozen in liquid nitrogen and stored at −80 °C prior to use. The heart of a freshly slaughtered adult cow was obtained from a local abattoir (Peel Sausage Inc.), chopped into ~1-inch cubes and collected into 50 mL falcon tubes. Falcon tubes were flash-frozen in a container of dry ice and stored at −80 °C prior to use. Isolation of mitochondria from all mammalian tissue was carried out following the protocol described above. However, due to size, the initial homogenization of tissue was performed by 15 strokes in a dounce homogenizer (mouse heart) or with several 5 s pulses in small Nutribullet blender (cow heart). All mouse protocols for mouse care and dissection were reviewed and approved by the University of Toronto Animal Care Committee, in accordance with the Canadian Council on Animal Care.
as §1, §2
For preliminary screens of hit compounds, compounds were screened at 100 μM; data are the average of at least three biological replicates. The complex I and II activity assays were used for additional dose-response experiments. […] For dose responses of benzimidazole analogs, data represent the average of two biological replicates. For all other dose-responses, data represent the average of at least three biological replicates.

L1 wild-type C. elegans [3] = experiment: microbe, parasite or virus in culture; conditions: Caenorhabditis elegans, read-out: C. elegans KCN Survival Assay LC50, estimated from fitted dose-response curves; mean of at least two biological replicates
in vitro = conditions: human
[4] = tested on: ben-1 mutant (ECA882) C. elegans; experiment: microbe, parasite or virus in culture; conditions: Caenorhabditis elegans
Method: Liquid development and viability assays were adapted from a previously established chemical screening protocol (Burns et al.)[24]. In brief, a saturated culture of E. coli HB101 was concentrated 2-fold in liquid NGM and 40 μL of this suspension was distributed to each well of a 96-well flat-bottom culture plate. 0.5 μL chemical solution (or DMSO alone) was added to each well (1% DMSO v/v) using either a multi-channel pipette or a pinning tool (V&P Scientific). L1 worms synchronized from an embryo preparation performed the day prior were diluted to a concentration of ~2 worms/μL in M9 buffer; 10 μL worm suspension was then added to each well. Culture plates were sealed with parafilm and placed in a plastic container lined with wet paper towels to prevent evaporation. Containers were then incubated for 6 days at 20 °C with shaking at 165 rpm. Following incubation, 300 μL M9 was added to each well to decrease the turbidity of the HB101-NGM suspension. Single images of each microplate well were then taken on a Nikon Ti Eclipse inverted microscope (Nikon NIS Elements AR). Images were processed using Python scripts to isolate worm-associated pixels from background. Scores of worm development and viability were determined as the sum of worm-associated pixels in each well. Development/viability scores for each well were divided by the development /viability scores for the corresponding DMSO controls, resulting in a relative viability value for each chemical. At least three biological replicates were performed for each dose-response experiment; relative viability values were averaged across replicates. […]
anthelmintics. a. Chemical structures of four commercial benzimidazole anthelmintics (e.g., albendazole, […]
Dose response of four commercial […]
elegans strains: N2, wild type; ECA882, deletion (ben-1); ECA917, F200Y (ben-1); ECA1075, F167Y (ben-1); ECA1080, E198A (ben-1); CB3474, G104D (ben-1). The colour-coded scale denotes the phenotypic outcome of drug treatment (e.g., motility or viability) relative to DMSO controls; white/pale- […]
death and arrested development. c. […]
benzimidazole anthelmintics (blue) were conducted in C. elegans development and viability assays for wild type (N2) and ben-1 mutant (ECA882) C. elegans (see Supplementary Date File 1).
All data used for generation of dose-response curves is the mean of at least three […]
Supplementary Figure 7 (continued). Davie et al.

L1 wild-type C. elegans [5] = conditions: for Relative Motility: worm motility 3 hours after the removal of KCN (endpoint), relative to DMSO controls, single biological replicate
[6] = in vitro complex I dose response on C. elegans mitochondria, average of at least two biological replicates, fit in R (DRC), read-out: IC50 C. elegans complex I
[7] = wild-type (N2) mitochondria, read-out: C. elegans Complex I IC50
[8] = wild-type C. elegans mitochondria, read-out: C. elegans Complex I IC50
[9] = read-out: C. elegans (ben-1) Development & Viability Assay LC50
[10] = read-out: C. elegans ben-1 log10 LC50 (converted)
[11] = 50 μM compound, hit = relative motility below 0.25 3 hours after removal of KCN
[12] = wild-type C. elegans mitochondria, estimated from fitted dose-response curves, read-out: C. elegans Complex I IC50
[13] = HEK293 Cell Viability Assay LC50, HEK293 cells, estimated from fitted dose-response curves, mean of at least two biological replicates
[14] = 50 μM, KCN survival assay, hit = relative motility below 0.25

Structure (SMILES) | IC50 [1, 6] [µM] | Log IC50 C. elegans complex I [1] [µM] | IC50 [1, 7] [µM] | IC50 [1, 8] [µM] | IC50 [2] [µM] | Log IC50 B. taurus complex I [2] [µM] | LC50 (L1 wild-type C. elegans [3]) [µM] | CC50 at 2 days (in vitro) [µM] | LC50 [4, 9] [µM] | LC50 [4, 10] [µM] | Screen "Hit" (L1 wild-type C. elegans [5]; [11]) | IC50 [1, 12] [µM] | CC50 at 2 days (in vitro; [13]) [µM] | Screen "Hit" (L1 wild-type C. elegans [5]; [14]) | Relative Motility (L1 wild-type C. elegans [5]; 50 μM) | IC50 ([2]; estimated from fitted dose-response curves) [µM] | CC50 at 2 days (in vitro; HEK293 Cell Viability Assay LC50, HEK293 cells, estimated from fitted dose-response curves) [µM] | Hit (L1 wild-type C. elegans [5]; active or inactive at 50 μM in C. elegans assay of RQ-dependent metabolism) | LC50 ([4]; read-out: C. elegans ben-1 LC50) [µM]
Cc1nc2ccccc2n1Cc1ccc(C(C)(C)C)cc1 [Compound 5521938] | 2.57 | 0.41 | 2.57 | 2.57 | 1.18 | 0.07 | 11 | 35.3 | 272 | 272 | Y (hits were identified as compounds that reduced relative motility below 0.25 (75% reduction)) |  |  |  |  |  |  |  | 
CCn1c(/C=C/c2ccc(F)cc2)nc2ccccc21 [Compound 7147614] |  |  |  |  |  |  | 14.4 |  | 77 | 77.1 |  | > 75 | 41 | Y (hits were identified as compounds that reduced relative motility below 0.25 (75% reduction)) | 0.130 |  |  |  | 
COc1ccccc1/C=C/c1nc2ccccc2[nH]1 [Compound 7148894] |  |  |  |  |  |  | 9.02 |  | 188 | 188 |  | > 75 | < 12.5 | Y (hits were identified as compounds that reduced relative motility below 0.25 (75% reduction)) | 0.170 |  |  |  | 
Cc1nc2ccccc2n1Cc1ccc(F)cc1 [Compound 7360886] | 0.93 | -0.03 | 0.93 |  |  | 0.66 | 27 | > 100 | 170 | 169 | Y (hits were identified as compounds that reduced relative motility below 0.25 (75% reduction)) | 0.93 |  |  |  | 4.54 |  |  | 
Nc1nc2ccccc2n1CCCOc1ccccc1 [Compound 7915320] | 6.9 | 0.84 |  | 6.9 | 15.6 | 1.19 | 23.7 |  | 150 | 150 |  |  |  |  |  |  | 60 | non | 
Cn1c(Cc2ccc(Cl)cc2)nc2ccccc21 [Compound 9005666] | 8.27 | 0.92 | 8.27 | 8.27 | 33.3 | 1.52 | 28.6 | > 100 | 193 | 193 | Y (hits were identified as compounds that reduced relative motility below 0.25 (75% reduction)) |  |  |  |  |  |  |  | 
c1ccc(-c2noc(CCCCc3nc4ccccc4[nH]3)n2)cc1 [STK633241] | 20.6 | 1.31 |  | 20.6 | 18.5 | 1.27 | 19.4 |  | > 1000 | > 500 | Y (hits were identified as compounds that reduced relative motility below 0.25 (75% reduction)) |  |  |  |  |  |  |  | > 500
